Data from patent US12508323B2, “Method of treatment of colorectal, breast and lung cancer with metal containing immune agonist complexes” (HANGZHOU XINGAO BIOTECHNOLOGY CO., LTD., priority 2020, dated 2025).

How the values were obtained:
[1] = system: coronavirus (ATCC VR-841); experiment: Inhibition of coronavirus replication in PBMCs (fluorescence quantitative RT-PCR); assay type: cell-based; conditions: PBMC, 504 h, 100 μg/mL drug, 10 μL virus, after three weeks, six samples per group, read-out: Average inhibition rate of coronavirus (%)
Excerpt: Peripheral blood mononuclear cells (PBMCs) used herein was purchased from Shanghai Saili biotechnology Co., Ltd, which mainly included lymphocytes (T cells/B cells), monocytes, macrophages, and dendritic cells. Most of PBMCs were lymphocytes. PBMCs were normal primary cells, which belonged to a mixed system.
The virus strain used herein was coronavirus (ATCC VR-841), which was suitable for laboratory use and purchased from ATCC company. It was a bronchopneumonia coronavirus. Virus experiments in this study were performed by virus laboratory of American Animals Inc.
The cultured PBMCs were divided into seven groups (six samples in each group), namely, group A: negative control group (PBMC); group B, PBMC+cGAMP; group C, PBMC+MncGAMP; group D, PBMC+complex VIII; group E, PBMC+complex I; group F, PBMC+complex II; and group G, PBMC+complex III. Except for group A, which was used as a control group without drug addition, all other groups were respectively added with 100 μg/mL of the corresponding drug. Each cell sample was added with 10 μL of virus, and the antiviral status of the different immune agonist complexes were determined after three weeks. The inhibition rate of virus was selected as an evaluation index. The activity titer of the virus was detected by fluorescence quantitative RT-PCR.

[2] = system: APP/PS1 transgenic AD model mice; experiment: Morris water maze test in AD mice; assay type: in vivo; conditions: 10 mg/kg i.p. once a day for 60 days, space exploration test
Description: APP/PS1 transgenic AD model mice were purchased from Southern Model Biotechnology Co., Ltd., which were 4 months in age, and 24-26 g in weight. […]
A circular pool was designed, which was 1 m in diameter, 50 cm in height, 30 cm deep, and white bottom. […] After the mice found the platform or could not find the platform within 90 seconds (the latency period was recorded as 90 seconds), they were guided to the platform by the experimenter and rested on the platform for 10 seconds before the next trial.
24 h after the end of the positioning navigation test, the platform was removed. Then the mice were put into the water from the third quadrant, and the swimming paths of the mice were recorded within 180 s. The residence time of the mice in the target quadrant (third quadrant) and the number of times they crossed the location of the original platform were recorded to observe the spatial orientation ability of the mice. […]

[3] = system: mice with localized cerebral ischemia; experiment: Local cerebral ischemia model (wire bolus method), Zea Longa 5-point behavioral score; assay type: in vivo; conditions: ICR mice, 10 mg/kg i.p., Zea Longa 5-point scale (0 normal to 4)
Excerpt: Healthy male ICR mice, weighing 18-20 g, were purchased from Shanghai Slaughter Laboratory Animal Co (quality certificate number (SCXK(SH) 2007-0005)) and raised in a cleaning experimental animal room.
Local cerebral ischemia model was made by wire bolus method to verify the therapeutic effects of immune agonist complexes on cerebral ischemic brain diseases in experimental animals.
Experimental mice were anesthetized with 10% chloral hydrate intraperitoneally, and a median cervical incision was made to separate and ligate the proximal segment of the right common carotid artery, the carotid artery and branch vessels thereof. The right internal carotid artery was isolated, the pterygopalatine artery was isolated downward along the internal carotid artery, and the root was ligated for this branch. The proximal end of the internal carotid was provided with a prepared wire, and the distal end of the internal carotid was provided with an artery clip. […] Behavioral scoring was performed after surgery, and the scoring was single-blinded with reference to the Zea Longa 5-point scale, which was scored as follows: 0, normal mice with no signs of neurological injury; 1, unable to fully extend the contralateral front paw; 2, turning in a circle to the outside; 3, relatively measured tipping; and 4, unable to walk spontaneously, and loss of consciousness injury. […]

Nc1nc(=O)c2ncn(C3OC4COP(=O)(O)OC5C(COP(=O)(O)OC3C4O)OC(n3cnc4c(N)ncnc43)C5O)c2[nH]1 (stereo not shown) [cGAMP, 2′3′-cGAMP]
inhibition at 100 µg/mL [1]: 25 ± 4% | Percentage of time to cross the third quadrant platform in AD mice (%) [2]: 0.55 ± 0.10% | Behavioral scores (24 hours after surgery) [3]: 2.26 ± 0.40 | Behavioral scores (7 days after surgery) [3]: 1.65 ± 0.34
